In patent US20240270811A1, “Glycosylated Neuropeptide Derivative, Pharmaceutical Composition, Intranasal/Nasal Drop Formulation, and Use of Pharmaceutical Composition” (Tokyo University of Science Foundation, priority 2021, published 2024):
Where no end group is shown, it is not given here. The star is where a group is joined. Cam = NC(=O)C*

Key:
[1] = system: 7-week-old male ddY mouse; experiment: Forced swim test (FST) after intranasal administration; format: in vivo; settings: 16% DMSO in PBS, 0.6 nmol/mouse intranasal, 20 minutes before test session
Protocol: Administration solutions were prepared by completely dissolving PAS-CPP-GLP-2 derivative (no sugar) or PAS-CPP-GLP-2 derivatives (11-sugar, 5-sugar) in DMSO and adding PBS such that the final concentration of DMSO was 16% by mass. The concentration of each GLP-2 derivative was adjusted to 0.6 nmol/4 μL.
After anesthetizing mice with isoflurane using an all-in-one small animal anesthetizer (MK-AT210D, Muromachi Kikai Co., Ltd., hereinafter the same), the solution was intranasally administered to the mice. Specifically, the intranasal administration was performed by contacting a tip of the anesthetizer to a nasal cavity in a horizontal manner such that the solution was inhaled by spontaneous respiration, by the amount of 2 μL per nose cavity, 4 μL in total (0.6 nmol/mouse). […]
A 7-week-old male ddY mouse is placed in a transparent plastic cylinder with a diameter of 18 cm and a height of 50 cm containing water at a temperature of 25° C.±1° C. to a height of 7 cm, and is allowed to swim for 15 minutes. […] The behavior of the mouse is recorded over the test session with a video camera. […] The time during which the mouse is in a state of immobility (immobility time) is measured in the first 6 minutes from the start of the test session. The existence or non-existence of anti-depressant-like effects is determined by the length of the immobility time. […]

[2] = Migration to central nervous system, optical imaging of brain sagittal sections (ICG-labelled derivatives); format: in vivo, mouse; settings: 3.0 nmol/4 μL intranasal
Protocol: Administration solutions were prepared by completely dissolving a PAS-CPP-GLP-2 derivative (no sugar) labelled with ICG or a PAS-CPP-GLP-2 derivative (11-sugar) labelled with ICG in DMSO, and adjusting the final concentration of DMSO to 16% by adding PBS.
(§1) The concentration of a PAS-CPP-GLP-2 derivative (no sugar) or a PAS-CPP-GLP-2 derivative (11-sugar) was adjusted to 3.0 nmol/4 μL.
After anesthetizing mice with isoflurane using an all-in-one small animal anesthetizer, the administration solutions or 16% DMSO as a control was intranasally administered to the mice by the amount of 2 μL per nose cavity, 4 μL in total.
In order to observe the migration to the brain over time, the brain was isolated 5 minutes, 10 minutes, 20 minutes, 60 minutes and 90 minutes after the intranasal administration, respectively, and subjected to infiltration fixation with 4% paraformaldehyde (4% PFA) solution overnight. Subsequently, a sagittal section with a thickness of 2 mm at the left and the right from the center of the brain was prepared using a brain matrix (RBM-2000S, ASI). The section was placed in a dish and analyzed with an optical imaging apparatus (Clairvivo OPT plus, Shimadzu Corporation) at an excitation wavelength of 785 nm, fluorescence wavelength of 849 nm, and an exposure time: 6 seconds.

[3] = Amount of migration to brain quantified by GLP-2 ELISA; format: in vivo; settings: 6.0 nmol/mouse intranasal, brain isolated 20 minutes after administration
Protocol: Mice were intranasally administered with 16% DMSO or GLP-2 derivatives (6.0 nmol/mouse). The brain was isolated 20 minutes after the administration, and homogenized with BioMasher II (Nippi, Tokyo, Japan). A sample was prepared by performing centrifugal separation by 1000×g for 15 minutes and collecting a supernatant. The amount of a GLP-2 derivative in the sample was quantified using a GLP-2 ELISA kit. Specifically, a cleaning process including filling each well of a measurement plate with a cleaning fluid (350 μL) and suctioning the cleaning fluid with a pipette was performed three times. Subsequently, a labeled antigen solution (40 μL), a sample (25 μL) and a specific antibody solution (50 μL) were added in this order to the well and mixed. The measurement plate was tightly sealed and allowed to stand for 18 hours at 4° C. The cleaning process was performed three times, and a SA-HRP solution (100 μL) was added and allowed to permeate for 1.5 hours at room temperature (60 rpm). […] Finally, an enzyme reaction stop solution (100 μL) was added and an absorbance at 490 nm was measured with ARVO (PerkinElmer Japan Co., Ltd., Kanagawa, Japan) to calculate the concentration of a GLP-2 derivative.

[4] = Solubility of GLP-2/GLP-1 derivatives with respect to aqueous medium (PBS); format: physicochemical
Protocol: Samples were prepared by dispensing a Milli-Q aqueous solution of PAS-CPP-GLP-2 (no sugar), PAS-CPP-GLP-2 (5-sugar) or PAS-CPP-GLP-2 (11-sugar) to a microtube by an amount of 5 nmol/tube, 30 nmol/tube, 60 nmol/tube, 120 nmol/tube or 200 nmol/tube, and freeze-drying the same. The freeze-dried samples were added with […] of PBS (Dulbecco's Phosphate Buffered Saline; Sigma-Aldrich, herein after the same), subjected to ultrasonic treatment, and allowed to stand overnight. Thereafter, the concentration of the peptide was measured. Specifically, a supernatant obtained by centrifuging the sample suspension was subjected to the measurement of OD (280 nm) with a spectrometer (NanoDrop™ 2000c spectrometer; Thermo Fisher Scientific K.K.)
Administration solutions were prepared by mixing a PAS-CPP-GLP-2 derivative (no sugar) or a PAS-CPP-GLP-2 derivative (11-sugar) with PBS. […] The concentration of each GLP-2 derivative was adjusted to 0.6 nmol/4 μL.
as §1

Substance | immobility time / anti-depressant-like effect vs control group [1] | fluorescence in brain section ([2]; 10 minutes after administration) | fluorescence in brain section ([2]; 20 minutes after administration) | fluorescence in brain section ([2]; 60 minutes after administration) | amount of GLP-2 derivative in brain [3] | solubility with respect to PBS (FIG. 1) [4]
glucagon-like peptide-2 (HADGSFSDEMNTILDNLAARDFINWLIQTKITD; GLP-2) | did not show a significant decrease in immobility time | – | – | – | – | –
FFLIPKGRRRRRRRRGGHADGSFSDEMNTILDNLAARDFINWLIQTKITDC(Cam)-OH [PAS-CPP-GLP-2 (no sugar), reference compound] | – | fluorescence was observed at a region around the hippocampus | fluorescence was observed | fluorescence was not observed | below the detection limit | not dissolved in PBS at all
